Test results from ChEMBL document CHEMBL3627608, “Crystal structures of human RIP2 kinase catalytic domain complexed with ATP-competitive inhibitors: Foundations for understanding inhibitor selectivity” (Bioorg Med Chem, 2015).

Tests used:
[1] = molecular target: T1, Mitogen-activated protein kinase kinase kinase kinase 3 (Homo sapiens) (UniProt Q8IVH8); assay: Inhibition of GLK (unknown origin) at 10 uM after 120 mins P33 radiolabeled kinase activity assay
T1 sequence (whole entry): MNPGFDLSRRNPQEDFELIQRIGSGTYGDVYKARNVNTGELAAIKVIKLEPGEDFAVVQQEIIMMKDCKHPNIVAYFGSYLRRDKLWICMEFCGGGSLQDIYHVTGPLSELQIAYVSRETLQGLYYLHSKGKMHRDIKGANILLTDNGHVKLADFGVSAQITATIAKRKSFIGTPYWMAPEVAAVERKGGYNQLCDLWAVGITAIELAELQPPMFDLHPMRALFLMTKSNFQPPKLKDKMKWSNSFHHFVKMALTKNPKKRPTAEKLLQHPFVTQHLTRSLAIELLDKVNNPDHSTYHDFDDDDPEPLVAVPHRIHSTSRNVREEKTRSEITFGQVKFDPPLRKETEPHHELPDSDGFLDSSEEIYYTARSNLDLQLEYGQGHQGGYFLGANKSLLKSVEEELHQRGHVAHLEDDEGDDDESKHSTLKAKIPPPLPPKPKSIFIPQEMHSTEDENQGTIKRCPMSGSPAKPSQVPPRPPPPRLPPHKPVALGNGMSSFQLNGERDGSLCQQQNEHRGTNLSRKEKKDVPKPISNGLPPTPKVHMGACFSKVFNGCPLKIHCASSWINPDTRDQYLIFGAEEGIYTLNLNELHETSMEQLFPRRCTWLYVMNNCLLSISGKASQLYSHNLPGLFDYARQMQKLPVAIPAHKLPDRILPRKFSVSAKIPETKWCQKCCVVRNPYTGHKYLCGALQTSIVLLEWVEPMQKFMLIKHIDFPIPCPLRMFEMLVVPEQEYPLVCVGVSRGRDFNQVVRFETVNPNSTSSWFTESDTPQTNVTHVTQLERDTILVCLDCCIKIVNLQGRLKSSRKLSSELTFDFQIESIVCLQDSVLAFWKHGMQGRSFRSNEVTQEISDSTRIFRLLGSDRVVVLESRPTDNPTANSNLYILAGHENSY

[2] = molecular target: Protein kinase C alpha type (Homo sapiens) (UniProt P17252); assay: Inhibition of PKCalpha (unknown origin) at 10 uM after 120 mins P33 radiolabeled kinase activity assay
[3] = molecular target: T2, cAMP-dependent protein kinase catalytic subunit PRKX (Homo sapiens) (UniProt P51817); assay: Inhibition of PRKX (unknown origin) at 10 uM after 120 mins P33 radiolabeled kinase activity assay
T2 sequence (whole entry): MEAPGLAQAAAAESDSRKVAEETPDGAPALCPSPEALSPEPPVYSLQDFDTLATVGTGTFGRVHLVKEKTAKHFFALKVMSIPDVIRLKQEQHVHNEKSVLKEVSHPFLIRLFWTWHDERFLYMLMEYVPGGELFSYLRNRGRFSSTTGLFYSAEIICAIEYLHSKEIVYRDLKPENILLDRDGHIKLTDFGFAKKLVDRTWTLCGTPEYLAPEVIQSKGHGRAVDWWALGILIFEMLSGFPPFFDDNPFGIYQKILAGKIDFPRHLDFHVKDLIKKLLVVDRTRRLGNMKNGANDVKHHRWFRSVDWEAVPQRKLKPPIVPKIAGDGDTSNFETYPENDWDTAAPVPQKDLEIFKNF

[4] = molecular target: Vascular endothelial growth factor receptor 2 (Homo sapiens) (UniProt P35968); assay: Inhibition of KDR (unknown origin) at 10 uM after 120 mins P33 radiolabeled kinase activity assay
Sequence of Vascular endothelial growth factor receptor 2 (Homo sapiens) (P35968 whole entry): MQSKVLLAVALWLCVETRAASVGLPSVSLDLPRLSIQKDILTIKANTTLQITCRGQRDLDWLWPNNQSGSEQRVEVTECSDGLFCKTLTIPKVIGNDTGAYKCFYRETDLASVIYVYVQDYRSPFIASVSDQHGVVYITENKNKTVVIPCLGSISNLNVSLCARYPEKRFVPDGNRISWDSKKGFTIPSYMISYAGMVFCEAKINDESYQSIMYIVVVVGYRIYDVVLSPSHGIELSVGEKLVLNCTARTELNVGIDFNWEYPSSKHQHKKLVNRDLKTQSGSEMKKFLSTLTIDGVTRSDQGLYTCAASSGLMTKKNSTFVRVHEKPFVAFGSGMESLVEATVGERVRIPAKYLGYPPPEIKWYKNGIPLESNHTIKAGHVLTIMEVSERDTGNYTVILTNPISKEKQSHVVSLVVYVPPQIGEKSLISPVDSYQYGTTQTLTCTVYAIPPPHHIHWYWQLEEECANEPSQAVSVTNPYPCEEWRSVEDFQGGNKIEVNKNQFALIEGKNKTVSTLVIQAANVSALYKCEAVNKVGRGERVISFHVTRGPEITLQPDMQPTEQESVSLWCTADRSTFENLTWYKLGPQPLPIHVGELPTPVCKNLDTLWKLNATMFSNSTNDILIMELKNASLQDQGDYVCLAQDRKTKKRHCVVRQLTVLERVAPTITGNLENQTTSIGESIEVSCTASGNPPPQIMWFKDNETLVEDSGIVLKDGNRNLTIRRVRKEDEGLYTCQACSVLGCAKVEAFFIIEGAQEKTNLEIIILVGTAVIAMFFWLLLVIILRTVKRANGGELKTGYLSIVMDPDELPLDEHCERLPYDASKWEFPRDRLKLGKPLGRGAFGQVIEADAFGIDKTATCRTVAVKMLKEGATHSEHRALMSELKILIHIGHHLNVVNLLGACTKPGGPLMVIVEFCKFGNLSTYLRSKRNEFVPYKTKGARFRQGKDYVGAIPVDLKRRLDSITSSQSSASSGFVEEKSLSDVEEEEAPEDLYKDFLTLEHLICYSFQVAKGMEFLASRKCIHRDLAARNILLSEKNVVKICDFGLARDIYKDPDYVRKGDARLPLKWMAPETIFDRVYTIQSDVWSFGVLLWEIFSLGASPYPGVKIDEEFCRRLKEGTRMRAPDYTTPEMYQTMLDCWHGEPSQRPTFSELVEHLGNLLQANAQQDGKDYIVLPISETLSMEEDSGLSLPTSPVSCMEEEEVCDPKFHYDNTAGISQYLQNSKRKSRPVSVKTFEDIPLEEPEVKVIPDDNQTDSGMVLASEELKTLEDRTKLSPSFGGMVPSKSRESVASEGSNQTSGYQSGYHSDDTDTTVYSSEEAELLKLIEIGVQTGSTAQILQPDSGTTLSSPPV

[5] = molecular target: T3, Myosin light chain kinase (Homo sapiens) (UniProt Q32MK0); assay: Inhibition of MYLK3 (unknown origin) at 10 uM after 120 mins P33 radiolabeled kinase activity assay
T3 sequence (whole entry): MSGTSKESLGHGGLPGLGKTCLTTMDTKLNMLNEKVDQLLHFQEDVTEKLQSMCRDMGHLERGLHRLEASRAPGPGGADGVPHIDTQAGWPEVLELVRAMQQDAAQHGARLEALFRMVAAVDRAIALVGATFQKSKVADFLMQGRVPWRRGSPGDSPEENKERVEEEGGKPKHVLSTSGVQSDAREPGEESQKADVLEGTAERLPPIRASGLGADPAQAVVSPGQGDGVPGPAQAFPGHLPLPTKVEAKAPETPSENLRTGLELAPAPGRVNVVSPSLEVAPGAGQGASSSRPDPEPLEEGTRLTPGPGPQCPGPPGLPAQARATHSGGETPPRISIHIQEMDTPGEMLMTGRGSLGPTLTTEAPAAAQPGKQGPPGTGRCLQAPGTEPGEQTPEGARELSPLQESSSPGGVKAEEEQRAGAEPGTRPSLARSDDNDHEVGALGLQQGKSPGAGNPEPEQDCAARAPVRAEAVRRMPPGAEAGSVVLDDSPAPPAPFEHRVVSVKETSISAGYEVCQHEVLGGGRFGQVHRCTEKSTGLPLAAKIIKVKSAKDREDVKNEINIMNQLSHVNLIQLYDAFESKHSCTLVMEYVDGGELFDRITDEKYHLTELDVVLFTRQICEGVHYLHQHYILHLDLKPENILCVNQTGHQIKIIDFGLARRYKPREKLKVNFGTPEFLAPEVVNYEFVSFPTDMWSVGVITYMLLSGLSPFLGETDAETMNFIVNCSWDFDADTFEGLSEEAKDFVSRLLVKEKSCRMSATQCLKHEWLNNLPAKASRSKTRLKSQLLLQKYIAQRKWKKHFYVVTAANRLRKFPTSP

[6] = molecular target: T4, Mitogen-activated protein kinase kinase kinase 7 (Homo sapiens) (UniProt O43318); assay: Inhibition of TAK1 (unknown origin) at 10 uM after 120 mins P33 radiolabeled kinase activity assay
T4 sequence (whole entry): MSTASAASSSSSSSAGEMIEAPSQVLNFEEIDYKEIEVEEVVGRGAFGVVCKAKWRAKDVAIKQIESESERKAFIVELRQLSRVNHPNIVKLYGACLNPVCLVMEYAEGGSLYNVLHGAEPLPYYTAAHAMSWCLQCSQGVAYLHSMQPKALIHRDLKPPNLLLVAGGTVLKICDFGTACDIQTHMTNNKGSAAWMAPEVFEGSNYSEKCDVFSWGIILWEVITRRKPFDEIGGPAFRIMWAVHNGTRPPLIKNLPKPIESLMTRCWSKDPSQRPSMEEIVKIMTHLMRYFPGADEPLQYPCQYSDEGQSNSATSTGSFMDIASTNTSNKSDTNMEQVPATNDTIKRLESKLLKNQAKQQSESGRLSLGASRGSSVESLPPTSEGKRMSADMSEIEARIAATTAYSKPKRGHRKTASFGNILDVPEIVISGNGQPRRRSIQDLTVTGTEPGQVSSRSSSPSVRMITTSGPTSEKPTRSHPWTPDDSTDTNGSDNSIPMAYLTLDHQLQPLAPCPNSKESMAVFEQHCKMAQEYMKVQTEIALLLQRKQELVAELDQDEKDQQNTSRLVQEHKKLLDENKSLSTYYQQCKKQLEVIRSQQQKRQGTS

[7] = molecular target: Serine/threonine-protein kinase WNK2 (Homo sapiens) (UniProt Q9Y3S1); assay: Inhibition of WNK2 (unknown origin) at 10 uM after 120 mins P33 radiolabeled kinase activity assay
Sequence of Serine/threonine-protein kinase WNK2 (Homo sapiens) (Q9Y3S1 whole entry): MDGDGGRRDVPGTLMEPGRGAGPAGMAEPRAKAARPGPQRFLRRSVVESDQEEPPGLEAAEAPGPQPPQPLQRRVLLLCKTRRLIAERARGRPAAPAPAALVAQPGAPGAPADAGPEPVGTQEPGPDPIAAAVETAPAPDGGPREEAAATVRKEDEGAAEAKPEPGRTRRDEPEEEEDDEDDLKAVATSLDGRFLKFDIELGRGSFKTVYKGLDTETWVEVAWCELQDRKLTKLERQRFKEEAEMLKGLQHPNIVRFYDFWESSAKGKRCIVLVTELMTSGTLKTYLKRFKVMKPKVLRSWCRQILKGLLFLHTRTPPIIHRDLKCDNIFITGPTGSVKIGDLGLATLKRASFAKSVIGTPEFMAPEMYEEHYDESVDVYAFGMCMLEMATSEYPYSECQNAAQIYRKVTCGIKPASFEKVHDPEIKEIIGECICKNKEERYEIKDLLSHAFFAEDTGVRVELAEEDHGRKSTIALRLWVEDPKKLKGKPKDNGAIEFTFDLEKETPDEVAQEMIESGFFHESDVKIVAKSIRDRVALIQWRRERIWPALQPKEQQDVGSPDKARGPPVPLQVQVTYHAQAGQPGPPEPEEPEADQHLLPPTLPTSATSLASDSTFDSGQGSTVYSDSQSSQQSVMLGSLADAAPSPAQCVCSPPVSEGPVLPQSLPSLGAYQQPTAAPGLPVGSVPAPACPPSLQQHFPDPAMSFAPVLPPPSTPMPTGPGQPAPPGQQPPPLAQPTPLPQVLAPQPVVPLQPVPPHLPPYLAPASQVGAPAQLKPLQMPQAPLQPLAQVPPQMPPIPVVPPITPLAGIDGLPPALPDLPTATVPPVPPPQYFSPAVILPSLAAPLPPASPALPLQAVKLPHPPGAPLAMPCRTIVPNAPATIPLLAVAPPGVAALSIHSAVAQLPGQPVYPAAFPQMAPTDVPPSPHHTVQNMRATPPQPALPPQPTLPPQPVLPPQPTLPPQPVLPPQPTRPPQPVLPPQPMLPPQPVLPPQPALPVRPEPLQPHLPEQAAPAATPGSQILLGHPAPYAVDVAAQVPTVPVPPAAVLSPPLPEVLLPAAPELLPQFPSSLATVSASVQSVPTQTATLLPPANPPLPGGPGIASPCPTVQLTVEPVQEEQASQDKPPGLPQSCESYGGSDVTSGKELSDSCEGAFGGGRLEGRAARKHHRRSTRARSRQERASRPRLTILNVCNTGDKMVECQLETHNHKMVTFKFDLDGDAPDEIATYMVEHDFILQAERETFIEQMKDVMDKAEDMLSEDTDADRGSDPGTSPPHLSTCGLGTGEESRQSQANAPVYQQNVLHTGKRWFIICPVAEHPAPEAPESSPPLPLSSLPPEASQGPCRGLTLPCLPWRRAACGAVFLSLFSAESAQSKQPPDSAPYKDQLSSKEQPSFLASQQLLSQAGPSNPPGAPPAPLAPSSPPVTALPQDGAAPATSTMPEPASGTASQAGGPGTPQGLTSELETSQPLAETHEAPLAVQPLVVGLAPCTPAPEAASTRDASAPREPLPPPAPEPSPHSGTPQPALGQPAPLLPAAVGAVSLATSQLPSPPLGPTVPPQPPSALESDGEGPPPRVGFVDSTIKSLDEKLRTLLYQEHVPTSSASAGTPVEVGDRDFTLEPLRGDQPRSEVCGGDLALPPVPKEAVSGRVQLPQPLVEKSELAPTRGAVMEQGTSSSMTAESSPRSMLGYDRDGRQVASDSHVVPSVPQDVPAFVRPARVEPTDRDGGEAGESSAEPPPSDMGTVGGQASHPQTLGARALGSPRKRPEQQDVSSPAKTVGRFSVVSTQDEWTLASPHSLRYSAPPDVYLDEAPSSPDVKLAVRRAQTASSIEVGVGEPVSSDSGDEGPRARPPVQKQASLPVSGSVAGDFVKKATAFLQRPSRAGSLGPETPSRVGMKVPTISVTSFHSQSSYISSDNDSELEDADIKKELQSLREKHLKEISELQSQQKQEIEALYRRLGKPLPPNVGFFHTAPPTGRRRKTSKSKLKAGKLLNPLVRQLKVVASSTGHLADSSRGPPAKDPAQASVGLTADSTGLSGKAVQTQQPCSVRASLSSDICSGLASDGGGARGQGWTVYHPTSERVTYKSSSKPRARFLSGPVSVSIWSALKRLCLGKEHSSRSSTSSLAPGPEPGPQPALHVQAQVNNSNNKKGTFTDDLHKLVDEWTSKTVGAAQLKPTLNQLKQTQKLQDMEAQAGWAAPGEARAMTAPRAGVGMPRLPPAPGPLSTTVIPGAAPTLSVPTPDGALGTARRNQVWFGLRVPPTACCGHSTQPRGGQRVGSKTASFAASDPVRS

inhibition [1]	inhibition [2]	inhibition [3]	inhibition [4]	inhibition [5]	inhibition [6]	inhibition [7]	SMILES
56.2%	-5.32%	18.2%	96.3%	-2.12%	83%	43%	CS(=O)(=O)c1cccc(Nc2nccc(-c3sc(N4CCOCC4)nc3-c3cccc(NS(=O)(=O)c4c(F)cccc4F)c3)n2)c1
4.53%	-4.59%	12.7%	7.13%	-0.74%	6.56%	3.46%	COCCNC(=O)c1ccc2c(c1)nc(-c1cnc(-c3ccc(Cl)cc3)[nH]1)n2CCOC
41.9%	-7.51%	54.2%	98.6%	-2.01%	83.8%	3.16%	CC(C)(C)c1cc(NC(=O)Nc2ccc(Oc3ccncc3)cc2)no1
